Experimental data reported in the supplement of paper PMC11061612.

What was measured:
[1] = system: L-363 (Plasma Cell Myeloma); experiment: combination Emax (second highest fraction inhibited in the dose matrix, 72 h); higher = more inhibition; extreme values may be limits of the assay
Method in brief: (§1)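 Cell lines in DMEM/F12 or RPMI with 10% FBS were plated in 1536-well plates, held 24 hours at 37°C, 5% CO2, then given two-drug dose matrices for 72 hours (DMSO typically 0.2%). Viability was read by CellTiter-Glo 2.0 luminescence and scaled as inhibition from 0 (vehicle wells) to 1 (blank wells). Combination Emax is the second-highest inhibition in the matrix; Bliss excess is observed combination effect minus expected EA + EB − EA·EB, EA and EB being single-agent effects.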

[2] = system: HT-1197 (Bladder Carcinoma); experiment: as above
Method in brief: as §1

[3] = system: KNS-62 (Squamous Cell Lung Carcinoma); experiment: as above
Method in brief: as §1

[4] = system: HT-3 (Cervical Carcinoma); experiment: as above
Method in brief: as §1

[5] = system: MRK-nu-1 (Breast Carcinoma); experiment: as above
Method in brief: as §1

[6] = system: NCI-H2170 (Squamous Cell Lung Carcinoma); experiment: as above
Method in brief: as §1

[7] = system: MDA-MB-175-VII (Breast Carcinoma); experiment: as above
Method in brief: as §1

[8] = system: NCI-H1435 (Non-Small Cell Lung Carcinoma); experiment: as above
Method in brief: as §1

[9] = system: GRANTA-519 (B-Cell Non-Hodgkin's Lymphoma); experiment: as above
Method in brief: as §1

[10] = system: SUP-HD1 (Hodgkin's Lymphoma); experiment: as above
Method in brief: as §1

GCIY (Gastric Carcinoma) = experiment: as above
Method in brief: as §1

[11] = system: IGROV-1 (Ovarian Carcinoma); experiment: as above
Method in brief: as §1

NCI-H2452 (Mesothelioma) = experiment: Bliss excess, mean over the matrix (fraction); higher = more synergy
Method in brief: as §1

[12] = system: OCI-M1 (Acute Myeloid Leukemia); experiment: as above
Method in brief: as §1

[13] = system: ATN-1 (T-Lymphoblastic Leukemia); experiment: as above
Method in brief: as §1

HT-144 (Melanoma) = experiment: as above
Method in brief: as §1

[14] = system: NTERA-2-cl-D1 (Other Solid Carcinomas); experiment: as above
Method in brief: as §1

[15] = system: NCI-H2023 (Non-Small Cell Lung Carcinoma); experiment: as above
Method in brief: as §1

[16] = system: MDA-MB-175-VII (Breast Carcinoma); experiment: as above
Method in brief: as §1

MG-63 (Osteosarcoma) = experiment: as above
Method in brief: as §1
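For Bliss excess, mean over the matrix in this document: after 72 h of two-drug dosing.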

| SMILES | combination Emax [1] | combination Emax [2] | combination Emax [3] | combination Emax [4] | combination Emax [5] | combination Emax [6] | combination Emax [7] | combination Emax [8] | combination Emax [9] | combination Emax [10] | combination Emax (GCIY (Gastric Carcinoma)) | combination Emax [11] | Bliss excess (NCI-H2452 (Mesothelioma)) | Bliss excess [12] | Bliss excess [13] | Bliss excess (HT-144 (Melanoma)) | Bliss excess [14] | Bliss excess [15] | Bliss excess [16] | Bliss excess (MG-63 (Osteosarcoma)) |
| --- | --- | --- | --- | --- | --- | --- | --- | --- | --- | --- | --- | --- | --- | --- | --- | --- | --- | --- | --- | --- |
| NC1(C(=O)N[C@@H](CCO)c2ccc(Cl)cc2)CCN(c2ncnc3[nH]ccc23)CC1 [Capivasertib] + CC(C)n1c(=O)n(C)c2cnc3cc(F)c(-c4ccc(OCCCN5CCCCC5)nc4)cc3c21 [AZD1390] (first compound max 10 µM, 7x7, partner max 0.3 µM) | 0.465 | 0.391 | 0.547 | 0.11 | 0.576 | 0.54 | 0.635 | 0.198 | 0.196 | 0.473 | 0.397 | 0.799 | -0.0922 | -0.0268 | -0.062 | -0.0688 | 0.0115 | -0.0587 | -0.0189 | -0.0844 |
| CCN(CCO)CCCOc1ccc2c(Nc3cc(CC(=O)Nc4cccc(F)c4)[nH]n3)ncnc2c1 [AZD2811] + O=C(c1cc(Cc2n[nH]c(=O)c3ccccc23)ccc1F)N1CCN(C(=O)C2CC2)CC1 [Olaparib] (first compound max 1 µM, 7x7, partner max 10 µM) | 0.184 | 0.203 | 0.145 | 0.18 | 0.491 | 0.623 | 0.23 | 0.196 | 0.452 | 0.718 | 0.427 | 0.303 | -0.0675 | 0.0337 | -0.0849 | -0.0266 | 0.066 | -0.0737 | -0.0012 | 0.0197 |
| CCc1c2c(nc3ccc(O)cc13)-c1cc3c(c(=O)n1C2)COC(=O)[C@]3(O)CC [SN-38] + CN(C)CCCOc1ccc(-c2ccc3ncc4c(c3c2)n(C2CCOCC2)c(=O)n4C)cn1 [AZD0156] (first compound max 0.3 µM, 7x7, partner max 1 µM) | 0.559 | 0.156 | 0.872 | 0.95 | 0.803 | 0.919 | 0.631 | 0.202 | 0.93 | 0.907 | 0.8 | 0.691 | -0.0197 | 0.0128 | 0.0407 | -0.0219 | -0.0591 | -0.0017 | -0.0043 | -0.0166 |
| CN(C)CCCOc1ccc(-c2ccc3ncc4c(c3c2)n(C2CCOCC2)c(=O)n4C)cn1 [AZD0156] + CCN(CCO)CCCOc1ccc2c(Nc3cc(CC(=O)Nc4cccc(F)c4)[nH]n3)ncnc2c1 [AZD2811] (first compound max 1 µM, 7x7, partner max 1 µM) | 0.192 | 0.203 | 0.141 | 0.0658 | 0.631 | 0.656 | 0.208 | 0.101 | 0.364 | 0.48 | 0.378 | 0.539 | -0.042 | 0.042 | -0.0742 | 0.0066 | 0.0219 | 0.0066 | -0.018 | -0.0079 |
| CC1(C)CCC(CN2CCN(c3ccc(C(=O)NS(=O)(=O)c4ccc(NCC5CCOCC5)c([N+](=O)[O-])c4)c(Oc4cnc5[nH]ccc5c4)c3)CC2)=C(c2ccc(Cl)cc2)C1 [Venetoclax] + CCN(CCO)CCCOc1ccc2c(Nc3cc(CC(=O)Nc4cccc(F)c4)[nH]n3)ncnc2c1 [AZD2811] (first compound max 1 µM, 7x7, partner max 1 µM) | 0.865 | 0.221 | 0.275 | 0.178 | 0.612 | 0.545 | 0.23 | 0.161 | 0.925 | 0.922 | 0.386 | 0.255 | 0.0268 | 0.0061 | 0.0113 | -0.0132 | 0.0826 | -0.067 | -0.0228 | -0.0699 |
| COc1nnc2ccc(N3CCC(c4ccc(OCCN5CCN(C)C(=O)[C@H]5C)cc4)CC3)nn12 [AZD5153] + C=CCn1c(=O)c2cnc(Nc3ccc(N4CCN(C)CC4)cc3)nc2n1-c1cccc(C(C)(C)O)n1 [AZD1775] (first compound max 1 µM, partner max 1 µM) | 0.935 | 0.724 | 0.542 | 0.553 | 0.309 | 0.735 | 0.432 | 0.24 | 0.874 | 0.783 | 0.605 | 0.838 | -0.0525 | -0.0449 | -0.0494 | 0.0394 | 0.0115 | 0.0244 | -0.0255 | -0.0419 |
